Assays:
Test in all cases: Illumina global RNA-sequencing of PDGx neurospheres
Assay type in all cases: cell-based
Conditions in all cases: 3 uM, 12 hours, compared to control
[1] = tested on: X14P neurospheres, HuR mRNA targets
Method: (§1) Illumina global RNA-sequencing data were generated by utilizing PDGx neurospheres, which have been treated with a compound as described herein (e.g., SRI-42127, 3 uM) for 12 hours or with vehicle as the control. RNA was isolated by using TRIzol reagent (Invitrogen; Carlsbad, CA). The RNA samples were processed.
(§2) RNA sequencing was performed on PDGx-derived glioma neurospheres representing the different molecular subtypes (classical, neuronal, and mesenchymal) after treatment with vehicle (control) or SRI-42127 (3 uM) for 12 hours. Analysis of direct HuR mRNA targets and their corresponding cell signaling pathways was performed. Table 9 illustrates the evaluated gene sets, representing direct HuR mRNA targets, and their corresponding cell signaling pathways.
(§3) The analysis of direct HuR mRNA targets and their corresponding cell signaling pathways has been performed by using gene sets, which have been defined as the direct HuR targets following tumor neurosphere treatment with DHTS, an established modulator of HuR/mRNA interaction (Lal et al., Nucleic Acid Research, 2017). […] Data are represented as average+standard deviation (Aver+SD). The significance was evaluated by using Student t-test.
(§4) The analysis was generated based on RNA-Seq data.

[2] = tested on: XD456 neurospheres, HuR mRNA targets
Method: as §1, §2, §3, §4

[3] = tested on: JX22p neurospheres, HuR mRNA targets
Method: as §1, §2, §3, §4

[4] = tested on: X1524 neurospheres, HuR mRNA targets
Method: as §1, §2, §3, §4

CN(c1ccc2ncc(-c3ccc4cn[nH]c4c3)n2n1)C1CCOCC1 [Compound 19]
gene set average value, Activation of BH3-only proteins Homo sapiens_R-HSA-114452 [1]: 1.03 | gene set average value, Cell Cycle Check points_Homo Sapiens_R-HSA-69620 [1]: 0.77 | gene set average value, Cell Cycle, Mitotic_Homo Sapiens_R-HSA-69278 [1]: 0.80 | gene set average value, Cell Cycle_Homo sapiens_R-HSA-1640170 [1]: 0.74 | gene set average value, Cell cycle_Homo Sapiens_hsa04110 [1]: 0.99 | gene set average value, Cellular Senescence_Homo sapiens_R-HSA-2559583 [1]: 0.99 | gene set average value, Cellular responses to Stress_Homo sapiens_R-HSA-2262752 [1]: 0.74 | gene set average value, Deadenylation-dependent mRNA decay_Homo sapiens_R-HSA-429914 [1]: 1.03 | gene set average value, Developmental Biology_Homo sapiens_R-HSA-1266738 [1]: 0.65 | gene set average value, Epstein-Barr virus Infection_Homo Sapiens_hsa05169 [1]: 1.0 | gene set average value, G2/M Check points_Homo sapiens_R-HSA-69481 [1]: 0.82 | gene set average value, G2/M DNA damage Checkpoint_Homo sapiens_R-HSA-69473 [1]: 0.82 | gene set average value, Gene Expression_Homo Sapiens_R-HSA-2559583 [1]: 0.95 | gene set average value, HTLV-1 infection_Homo Sapiens_hsa05186 [1]: 0.89 | gene set average value, Intrinsic Pathway for Apoptosis_Homo sapiens_R-HSA-109606 [1]: 1.03 | gene set average value, MAPK signaling Pathway_Homo Sapiens_hsa04010 [1]: 1.0 | gene set average value, Membrane Trafficking_Homo sapiens_R-HAS-199991 [1]: 0.86 | gene set average value, Mitotic G1-G1/S phases_Homo sapiens_R-HSA-453279 [1]: 1.00 | gene set average value, P53 signaling pathway_Homo Sapiens_hsa04115 [1]: 1.9 | gene set average value, RHO GTPases Activate Formins_Homo sapiens_R-HSA-5663220 [1]: 0.62 | gene set average value, RHO GTPases Effectors_Homo sapiens_R-HSA-195258 [1]: 0.70 | gene set average value, RNA degradation_Homo Sapiens_hsa03018 [1]: 1.97 | gene set average value, Regulation of TP53 Activity through Phosphorylation_Homo sapiens_R-HSA-6804756 [1]: 0.58 | gene set average value, Regulation of TP53 Activity_Homo sapiens_R-HSA-109606 [1]: 0.94 | gene set average value, Signaling by Rho GTPases_Homo sapiens_R-HSA-194315 [1]: 0.65 | gene set average value, TP53 Regulates Metabolic Genes_Homo sapiens_R-HSA-5628897 [1]: 1.03 | gene set average value, Transcriptional Regulation by TP53_Homo sapiens_R-HSA-3700989 [1]: 1.04 | gene set average value, Translocation of GLUT4 to the plasma membrane_Homo sapiens_R-HSA-1445148 [1]: 0.92 | gene set average value, Activation of BH3-only proteins Homo sapiens_R-HSA-114452 [2]: 0.94 | gene set average value, Cell Cycle Check points_Homo Sapiens_R-HSA-69620 [2]: 0.48 | gene set average value, Cell Cycle, Mitotic_Homo Sapiens_R-HSA-69278 [2]: 0.54 | gene set average value, Cell Cycle_Homo sapiens_R-HSA-1640170 [2]: 0.52 | gene set average value, Cell cycle_Homo Sapiens_hsa04110 [2]: 0.60 | gene set average value, Cellular Senescence_Homo sapiens_R-HSA-2559583 [2]: 0.64 | gene set average value, Cellular responses to Stress_Homo sapiens_R-HSA-2262752 [2]: 0.53 | gene set average value, Deadenylation-dependent mRNA decay_Homo sapiens_R-HSA-429914 [2]: 0.58 | gene set average value, Developmental Biology_Homo sapiens_R-HSA-1266738 [2]: 0.49 | gene set average value, Epstein-Barr virus Infection_Homo Sapiens_hsa05169 [2]: 0.49 | gene set average value, G2/M Check points_Homo sapiens_R-HSA-69481 [2]: 0.47 | gene set average value, G2/M DNA damage Checkpoint_Homo sapiens_R-HSA-69473 [2]: 0.50 | gene set average value, Gene Expression_Homo Sapiens_R-HSA-2559583 [2]: 0.63 | gene set average value, HTLV-1 infection_Homo Sapiens_hsa05186 [2]: 0.61 | gene set average value, Intrinsic Pathway for Apoptosis_Homo sapiens_R-HSA-109606 [2]: 0.94 | gene set average value, MAPK signaling Pathway_Homo Sapiens_hsa04010 [2]: 0.54 | gene set average value, Membrane Trafficking_Homo sapiens_R-HAS-199991 [2]: 0.53 | gene set average value, Mitotic G1-G1/S phases_Homo sapiens_R-HSA-453279 [2]: 0.61 | gene set average value, P53 signaling pathway_Homo Sapiens_hsa04115 [2]: 1.19 | gene set average value, RHO GTPases Activate Formins_Homo sapiens_R-HSA-5663220 [2]: 0.48 | gene set average value, RHO GTPases Effectors_Homo sapiens_R-HSA-195258 [2]: 0.50 | gene set average value, RNA degradation_Homo Sapiens_hsa03018 [2]: 0.65 | gene set average value, Regulation of TP53 Activity through Phosphorylation_Homo sapiens_R-HSA-6804756 [2]: 0.35 | gene set average value, Regulation of TP53 Activity_Homo sapiens_ [2]: 0.44 | gene set average value, Signaling by Rho GTPases_Homo sapiens_R-HSA-194315 [2]: 0.45 | gene set average value, TP53 Regulates Metabolic Genes_Homo sapiens_R-HSA-5628897 [2]: 0.54 | gene set average value, Transcriptional Regulation by TP53_Homo sapiens_R-HSA-3700989 [2]: 0.64 | gene set average value, Translocation of GLUT4 to the plasma membrane_Homo sapiens_R-HSA-1445148 [2]: 0.53 | gene set average value, Activation of BH3-only proteins Homo sapiens_R-HSA-114452 [3]: 0.42 | gene set average value, Cell Cycle Check points_Homo Sapiens_R-HSA-69620 [3]: 0.35 | gene set average value, Cell Cycle, Mitotic_Homo Sapiens_R-HSA-69278 [3]: 0.32 | gene set average value, Cell Cycle_Homo sapiens_R-HSA-1640170 [3]: 0.36 | gene set average value, Cell cycle_Homo Sapiens_hsa04110 [3]: 0.37 | gene set average value, Cellular Senescence_Homo sapiens_R-HSA-2559583 [3]: 0.28 | gene set average value, Cellular responses to Stress_Homo sapiens_R-HSA-2262752 [3]: 0.27 | gene set average value, Deadenylation-dependent mRNA decay_Homo sapiens_R-HSA-429914 [3]: 0.31 | gene set average value, Developmental Biology_Homo sapiens_R-HSA-1266738 [3]: 0.32 | gene set average value, Epstein-Barr virus Infection_Homo Sapiens_hsa05169 [3]: 0.43 | gene set average value, G2/M Check points_Homo sapiens_R-HSA-69481 [3]: 0.39 | gene set average value, G2/M DNA damage Checkpoint_Homo sapiens_R-HSA-69473 [3]: 0.39 | gene set average value, Gene Expression_Homo Sapiens_R-HSA-2559583 [3]: 0.37 | gene set average value, HTLV-1 infection_Homo Sapiens_hsa05186 [3]: 0.47 | gene set average value, Intrinsic Pathway for Apoptosis_Homo sapiens_R-HSA-109606 [3]: 0.42 | gene set average value, MAPK signaling Pathway_Homo Sapiens_hsa04010 [3]: 0.31 | gene set average value, Membrane Trafficking_Homo sapiens_R-HAS-199991 [3]: 0.28 | gene set average value, Mitotic G1-G1/S phases_Homo sapiens_R-HSA-453279 [3]: 0.36 | gene set average value, P53 signaling pathway_Homo Sapiens_hsa04115 [3]: 0.24 | gene set average value, RHO GTPases Activate Formins_Homo sapiens_R-HSA-5663220 [3]: 0.26 | gene set average value, RHO GTPases Effectors_Homo sapiens_R-HSA-195258 [3]: 0.30 | gene set average value, RNA degradation_Homo Sapiens_hsa03018 [3]: 0.35 | gene set average value, Regulation of TP53 Activity through Phosphorylation_Homo sapiens_R-HSA-6804756 [3]: 0.34 | gene set average value, Regulation of TP53 Activity_Homo sapiens_R-HSA-109606 [3]: 0.31 | gene set average value, Signaling by Rho GTPases_Homo sapiens_R-HSA-194315 [3]: 0.30 | gene set average value, TP53 Regulates Metabolic Genes_Homo sapiens_R-HSA-5628897 [3]: 0.30 | gene set average value, Transcriptional Regulation by TP53_Homo sapiens_R-HSA-3700989 [3]: 0.31 | gene set average value, Translocation of GLUT4 to the plasma membrane_Homo sapiens_R-HSA-1445148 [3]: 0.40 | gene set average value, Activation of BH3-only proteins Homo sapiens_R-HSA-114452 [4]: 0.75 | gene set average value, Cell Cycle Check points_Homo Sapiens_R-HSA-69620 [4]: 0.66 | gene set average value, Cell Cycle, Mitotic_Homo Sapiens_R-HSA-69278 [4]: 0.67 | gene set average value, Cell Cycle_Homo sapiens_R-HSA-1640170 [4]: 0.66 | gene set average value, Cell cycle_Homo Sapiens_hsa04110 [4]: 0.75 | gene set average value, Cellular Senescence_Homo sapiens_R-HSA-2559583 [4]: 0.76 | gene set average value, Cellular responses to Stress_Homo sapiens_R-HSA-2262752 [4]: 0.70 | gene set average value, Deadenylation-dependent mRNA decay_Homo sapiens_R-HSA-429914 [4]: 0.84 | gene set average value, Developmental Biology_Homo sapiens_R-HSA-1266738 [4]: 0.72 | gene set average value, Epstein-Barr virus Infection_Homo Sapiens_hsa05169 [4]: 0.79 | gene set average value, G2/M Check points_Homo sapiens_R-HSA-69481 [4]: 0.66 | gene set average value, G2/M DNA damage Checkpoint_Homo sapiens_R-HSA-69473 [4]: 0.67 | gene set average value, Gene Expression_Homo Sapiens_R-HSA-2559583 [4]: 0.87 | gene set average value, HTLV-1 infection_Homo Sapiens_hsa05186 [4]: 0.88 | gene set average value, Intrinsic Pathway for Apoptosis_Homo sapiens_R-HSA-109606 [4]: 0.75 | gene set average value, MAPK signaling Pathway_Homo Sapiens_hsa04010 [4]: 0.76 | gene set average value, Membrane Trafficking_Homo sapiens_R-HAS-199991 [4]: 0.61 | gene set average value, Mitotic G1-G1/S phases_Homo sapiens_R-HSA-453279 [4]: 0.63 | gene set average value, P53 signaling pathway_Homo Sapiens_hsa04115 [4]: 1.07 | gene set average value, RHO GTPases Activate Formins_Homo sapiens_R-HSA-5663220 [4]: 0.65 | gene set average value, RHO GTPases Effectors_Homo sapiens_R-HSA-195258 [4]: 0.69 | gene set average value, RNA degradation_Homo Sapiens_hsa03018 [4]: 0.94 | gene set average value, Regulation of TP53 Activity through Phosphorylation_Homo sapiens_R-HSA-6804756 [4]: 0.64 | gene set average value, Regulation of TP53 Activity_Homo sapiens_R-HSA-109606 [4]: 0.77 | gene set average value, Signaling by Rho GTPases_Homo sapiens_R-HSA-194315 [4]: 0.72 | gene set average value, TP53 Regulates Metabolic Genes_Homo sapiens_R-HSA-5628897 [4]: 0.78 | gene set average value, Transcriptional Regulation by TP53_Homo sapiens_R-HSA-3700989 [4]: 0.81 | gene set average value, Translocation of GLUT4 to the plasma membrane_Homo sapiens_R-HSA-1445148 [4]: 0.69

Source: patent US12435091B2, “RNA-binding protein multimerization inhibitors and methods of use thereof” (THE UAB RESEARCH FOUNDATION, priority 2020, dated 2025)
